This is an account of results in US8399381B2, “Condensed heterocyclic sulfonyl urea compound, a herbicide containing the same, and a method for weed control using the same” (Sumitomo Chemical Company, Limited, priority 2002, dated 2013).

The test system of data set [1] is sulfonylurea herbicide-resistant Lindernia dubia subsp. major Pennell. Briefly: Paddy pot weeding test, flooded, two-leaf stage (Test Example 1). The data set is classed as in vivo. The following applies: 1 g/are, three weeks after treatment, resistant biotype, Kawanishi Town, Yamagata Pref. The source says:
(§1) A 5 cm×5 cm Jiffy Pot™ was charged with paddy soil, then water was introduced into each pot, seeds of sulfonylurea herbicide-sensitive Scirpus juncoides var. ohwianus, sulfonylurea herbicide-sensitive Lindernia procumbens (Krock.) Philcox, sulfonylurea herbicide-sensitive Lindernia dubia subsp. major Pennell, sulfonylurea herbicide-resistant Scirpus juncoides var. ohwianus, sulfonylurea herbicide-resistant Lindernia procumbens (Krock.) Philcox and sulfonylurea herbicide-resistant Lindernia dubia subsp. major Pennell were sowed therein and cultivated for a prescribed period under flooding conditions. When the plants reached the two-leave stage, the prescribed number of Jiffy Pots where the plants had been grown were transferred to a 150-cm^2 rectangular plastic pot, and water was introduced to a height of 3 cm, and a chemical diluent containing a compound was applied into the pot in an amount of 1 g/are. The chemical diluent was prepared by dissolving 1.5 g compound in 2 L of N,N-dimethylformamide (DMF) containing, 2% (W/V) surfactant Tween™ 20 and then diluting it with water to adjust the total volume to 10 L.

Data set [2] deals with sulfonylurea herbicide-resistant Scirpus juncoides var. ohwianus. Described as above. The class given is in vivo. The following applies: 1 g/are, three weeks after treatment, resistant biotype, Iwamisawa City, Hokkaido.
Excerpt: as §1

The test system of data set [3] is sulfonylurea herbicide-sensitive Lindernia dubia subsp. major Pennell. Described as above. The following applies: 1 g/are, three weeks after treatment, sensitive biotype, Makabe Town, Ibaraki Pref. The class given is in vivo.
Excerpt: as §1

For data set [4], the system named is sulfonylurea herbicide-sensitive Lindernia procumbens (Krock.) Philcox. The description is as above. The class given is in vivo. The following applies: 1 g/are, three weeks after treatment, sensitive biotype, Kyoto Pref.
Excerpt: as §1

For data set [5], the system named is sulfonylurea herbicide-sensitive Scirpus juncoides var. ohwianus. Described as above. The data set is classed as in vivo. The following applies: 1 g/are, three weeks after treatment, sensitive biotype, Kyoto Pref.
Excerpt: as §1

The term melting point denotes the temperature, or range, at which the solid turns liquid. The compound `CCc1nc2ccc(C)nn2c1NC(=O)NS(=O)(=O)c1nc(OC)cc(OC)n1` [Compound No. 1] had a melting point of 182 to 184 °C.

With `CCc1nc2ccc(Cl)nn2c1NC(=O)NS(=O)(=O)c1nc(OC)cc(OC)n1` [Compound No. 2], the melting point was 174 to 175 °C.

The compound `CCOc1ccc2nc(CC)c(NC(=O)NS(=O)(=O)c3nc(OC)cc(OC)n3)n2n1` [Compound No. 5] registered a melting point of 180 to 181 °C.

For the compound `CCc1nc2ccc(OC)nn2c1NC(=O)NS(=O)(=O)c1nc(OC)cc(OC)n1` [Compound No. 6], the melting point is 118 to 123 °C (dec.).

Turning to `CCOc1ccc2nc(C(F)(F)F)c(NC(=O)NS(=O)(=O)c3nc(OC)cc(OC)n3)n2n1` [Compound No. 10], the melting point was 169 to 171 °C.

Take `COc1cc(OC)nc(S(=O)(=O)NC(=O)Nc2c(C)nc3c(C)cc(N(C)C)nn23)n1` [Compound No. 15]: the melting point was 266 to 268 °C (dec.).

For `COc1cc(OC)nc(S(=O)(=O)NC(=O)Nc2c(C)nc3ccc(OC)nn23)n1` [Compound No. 17], the melting point turned out to be 241 °C.

Turning to `COc1cc(OC)nc(S(=O)(=O)NC(=O)Nc2c(C)nc3c(C)cc(SC)nn23)n1` [Compound No. 20], the melting point is 191 to 193 °C (dec.).

Turning to `CCCc1nc2ccc(SC)nn2c1S(=O)(=O)NC(=O)Nc1nc(OC)cc(OC)n1` [Compound No. 31], the “R Lindernia dubia subsp. major Pennell (effect index)” value in data set [1] was 4 (high 61 to 80). Also, in data set [2], the “R Scirpus juncoides var. ohwianus (effect index)” value is given as 5 (excellent 81 to 100). The “S Lindernia dubia subsp. major Pennell (effect index)” value in data set [3] was 5 (excellent 81 to 100). In data set [4], the “S Lindernia procumbens (Krock.) Philcox (effect index)” value is on record as 5 (excellent 81 to 100). Moreover, in data set [5], the “S Scirpus juncoides var. ohwianus (effect index)” value is listed as 5 (excellent 81 to 100).

Take `C=Cc1ccc2nc(Cl)c(S(=O)(=O)NC(=O)Nc3nc(OC)cc(OC)n3)n2n1` [Compound No. 43]: in data set [1], the “R Lindernia dubia subsp. major Pennell (effect index)” value was 5 (excellent 81 to 100). Moreover, the “R Scirpus juncoides var. ohwianus (effect index)” value in data set [2] is on record as 4 (high 61 to 80). Further, in data set [3], the “S Lindernia dubia subsp. major Pennell (effect index)” value is 5 (excellent 81 to 100). Moreover, in data set [4], the “S Lindernia procumbens (Krock.) Philcox (effect index)” value is reported as 5 (excellent 81 to 100). Further, in data set [5], the “S Scirpus juncoides var. ohwianus (effect index)” value is 5 (excellent 81 to 100).

Turning to `COc1cc(OC)nc(NC(=O)NS(=O)(=O)c2c(Cl)nc3ccc(C4CC4)nn23)n1` [Compound No. 44], the “R Lindernia dubia subsp. major Pennell (effect index)” value in data set [1] is recorded as 5 (excellent 81 to 100). Moreover, in data set [2], the “R Scirpus juncoides var. ohwianus (effect index)” value is on record as 4 (high 61 to 80). In addition, the “S Lindernia dubia subsp. major Pennell (effect index)” value in data set [3] is on record as 5 (excellent 81 to 100). Further, the “S Lindernia procumbens (Krock.) Philcox (effect index)” value in data set [4] is reported as 5 (excellent 81 to 100). In addition, the “S Scirpus juncoides var. ohwianus (effect index)” value in data set [5] is on record as 5 (excellent 81 to 100).

Consider `C/C=C/c1ccc2nc(Cl)c(S(=O)(=O)NC(=O)Nc3nc(OC)cc(OC)n3)n2n1` [Compound No. 45], for which, in data set [1], the “R Lindernia dubia subsp. major Pennell (effect index)” value is recorded as 5 (excellent 81 to 100). Moreover, the “R Scirpus juncoides var. ohwianus (effect index)” value in data set [2] is reported as 4 (high 61 to 80). Also, in data set [3], the “S Lindernia dubia subsp. major Pennell (effect index)” value is recorded as 5 (excellent 81 to 100). Besides, the “S Lindernia procumbens (Krock.) Philcox (effect index)” value in data set [4] is given as 5 (excellent 81 to 100). Also, the “S Scirpus juncoides var. ohwianus (effect index)” value in data set [5] is listed as 5 (excellent 81 to 100).

Consider `CCCc1ccc2nc(F)c(S(=O)(=O)NC(=O)Nc3nc(OC)cc(OC)n3)n2n1` [Compound No. 46], for which, in data set [1], the “R Lindernia dubia subsp. major Pennell (effect index)” value was 5 (excellent 81 to 100). The “R Scirpus juncoides var. ohwianus (effect index)” value in data set [2] is recorded as 5 (excellent 81 to 100). Also, the “S Lindernia dubia subsp. major Pennell (effect index)” value in data set [3] is 5 (excellent 81 to 100). Also, the “S Lindernia procumbens (Krock.) Philcox (effect index)” value in data set [4] was 5 (excellent 81 to 100). In data set [5], the “S Scirpus juncoides var. ohwianus (effect index)” value is 5 (excellent 81 to 100).

Take `CCOc1ccn2nc(C)c(NC(=O)NS(=O)(=O)c3nc(OC)cc(OC)n3)c2n1` [compound 34]: in data set [1], the “R Lindernia dubia subsp. major Pennell (effect index)” value was 5 (excellent 81 to 100). For the same compound, the “R Scirpus juncoides var. ohwianus (effect index)” value in data set [2] was 4 (high 61 to 80). Besides, the “S Lindernia procumbens (Krock.) Philcox (effect index)” value in data set [4] is recorded as 5 (excellent 81 to 100). In data set [5], the “S Scirpus juncoides var. ohwianus (effect index)” value is 4 (high 61 to 80).
